Assay results from patent US20220041623A1, “INDOLE MACROCYCLIC DERIVATIVE, PREPARATION METHOD THEREOF AND APPLICATION THEREOF IN MEDICINE” (JIANGSU HENGRUI MEDICINE CO., LTD., priority 2018, published 2022).

Experiments:
MCL-1 protein = biological target: T1, MCL-1 protein (Homo sapiens, UniProt Q07820); experiment: MCL-1 protein binding experiment (HTRF, MCL-1/Bim)
T1 construct: Bim peptide bought from R&D, 3526/1 NA
Method: The following method was used to determine the binding ability of the compound of the present invention to MCL-1 protein. The experimental method is briefly described as follows.
MCL-1 inhibitors can bind to MCL-1 protein to prevent the binding of MCL-1 to Bim protein. The experiment evaluates the binding ability of MCL-1 inhibitor to MCL-1 protein by detecting the binding of MCL-1 to Bim protein through HTRF method, and the activity of the compound was evaluated according to the Ki value.
The mixture was incubated at room temperature for 2 hours, followed by the detection of fluorescence signals at 620 nm and 665 nm by PHERAstar. The data was processed by GraphPad software.

CYP2C9 = biological target: T2, CYP2C9 (Homo sapiens, UniProt P11712); experiment: Inhibition of human liver microsomal P450 subenzyme CYP2C9; assay type: in vitro ADME; details: human liver microsomes, diclofenac metabolic site, 30 minutes incubation; read-out: 2C9 IC50
T2 construct: Human liver microsomes (Corning Gentest, Cat No. 452161, Lot No. 6123001, 33 Donors); tissue Corning Gentest 452161; host or cells: human liver microsomes, pool of 33 donors
Method: (§1) The inhibition effect of the compound of the present invention on the enzymatic activity of human liver microsomal P450 subenzymes CYP2C9 and 2C19 was determined by the following experimental method.
(§2) 6. CYP probe substrate for 2C9 (Diclofenac/4 μM, SIGMA, Cat No. D6899-10G) and CYP probe substrate for 2C19 ((S)-Mephenytoin/20 μM, J&K Scientific Ltd., CatNo. 303768); positive control inhibitor for 2C9 ([…], SIGMA, Cat No. 526-08-9) and positive control inhibitor for 2C19 (Ticlopidine, SIGMA, Cat No. T6654-1G).
(§3) 100 mM PBS buffer solution was formulated. 2.5 mg/mL microsome solution, 15 mM MgCl2 solution and 5 mM NADPH solution were formulated with the buffer solution. 30 mM stock solution was diluted with DMSO into a serial solution I with concentrations of 10 mM, 3 mM, 1 mM, 0.3 mM, 0.1 mM, 0.03 mM, […] and 0 mM. The above serial solution I was diluted for 200 times with the phosphate buffer solution (PBS) to obtain a serial test solution II (150, 50, 15, 5, 1.5, 0.15, 0.015, 0 μM). […]
(§4) The data were calculated by Graphpad Prism to obtain the IC50 values of the compound for the diclofenac metabolic site of CYP2C9 and (S)-mephenytoin metabolic site of 2C19. which are shown in Table 3.

AMO-1 cells = experiment: Cell proliferation experiment (intracellular ATP, CellTiter-Glo), AMO-1; assay type: cell-based; details: Homo sapiens, AMO1, 72 h; AMO-1 cells, incubated 3 days, CellTiter-Glo; read-out: AMO-1 IC50
Method: (§5) The following method evaluates the inhibition effect of the compound of the present invention on the proliferation of AMO-1 and MV-4-11 cells according to IC50 value by detecting intracellular ATP content. The experimental method is briefly described as follows.
1. AMO-1, human bone marrow plasmacytoma (Nanjing Cobioer Biosciences Co., Ltd., CBP60242)
(§6) AMO-1 cells were cultured in RPMI1640 medium (containing 20% FBS), and MV-4-11 cells were cultured in IMDM medium (containing 10% FBS). The cells were passaged for 2 to 3 times a week, with a passage ratio of 1:4 or 1:6. During the passage, the cells were transferred to a centrifuge tube and centrifuged at 1200 rpm for 3 minutes. The supernatant was discarded, and fresh medium was added to resuspend the cells. […] 100 μL of complete medium was added to the periphery of the 96-well plate. The plate was incubated in an incubator for 24 hours (37° C., 5% CO2).
(§7) The test sample was diluted to 20 mM with DMSO, and then diluted to 9 concentrations by diluting in 4-fold gradient. Blank and control wells were set. 5 μL of the test compound solution formulated as gradient concentration was added to 95 μL of fresh medium. 10 µL of the above drug-containing medium solution was added to the plate. The plate was incubated in an incubator for 3 days (37° C., 5% CO2). In the 96-well cell culture plate, 50 μL of CellTiter-Glo reagent was added to each well, and the plate was left to stand in the dark at room temperature for 5 to 10 minutes. The chemiluminescence signal value was read in PHERAstar, and the data was processed by GraphPad software.

MV-4-11 cells = experiment: Cell proliferation experiment (intracellular ATP, CellTiter-Glo), MV-4-11; assay type: cell-based; details: Homo sapiens, MV4-11, 72 h; MV-4-11 cells, incubated 3 days, CellTiter-Glo; read-out: MV-4-11 IC50
Method: as §5, §6, §7

2C19 = biological target: T3, 2C19 (Homo sapiens, UniProt P33261); experiment: Inhibition of human liver microsomal P450 subenzyme CYP2C19; assay type: in vitro ADME; details: human liver microsomes, (S)-mephenytoin metabolic site, 30 minutes incubation
T3 construct: Human liver microsomes (Corning Gentest, Cat No. 452161, Lot No. 6123001, 33 Donors); tissue Corning Gentest 452161; host or cells: human liver microsomes, pool of 33 donors
Method: as §1, §2, §3, §4

T1 sequence (Q07820 171-327): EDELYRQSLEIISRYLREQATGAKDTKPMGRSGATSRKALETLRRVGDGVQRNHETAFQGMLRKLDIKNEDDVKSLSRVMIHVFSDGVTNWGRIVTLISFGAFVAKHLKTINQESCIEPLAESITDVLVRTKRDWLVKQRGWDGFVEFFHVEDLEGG
T3 sequence (P33261 whole entry): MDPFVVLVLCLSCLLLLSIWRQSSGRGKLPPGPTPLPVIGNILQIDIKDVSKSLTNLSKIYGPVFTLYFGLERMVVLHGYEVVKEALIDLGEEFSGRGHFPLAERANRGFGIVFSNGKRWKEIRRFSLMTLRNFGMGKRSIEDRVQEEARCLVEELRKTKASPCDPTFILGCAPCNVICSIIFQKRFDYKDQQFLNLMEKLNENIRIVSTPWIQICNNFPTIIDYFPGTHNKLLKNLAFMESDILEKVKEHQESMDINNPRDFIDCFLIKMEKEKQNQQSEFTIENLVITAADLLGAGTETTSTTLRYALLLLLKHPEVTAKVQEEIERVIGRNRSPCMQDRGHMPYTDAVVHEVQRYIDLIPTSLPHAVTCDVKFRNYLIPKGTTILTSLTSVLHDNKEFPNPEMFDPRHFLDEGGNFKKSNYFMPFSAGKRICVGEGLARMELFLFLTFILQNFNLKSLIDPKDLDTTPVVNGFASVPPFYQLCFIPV
T2 sequence (P11712 whole entry): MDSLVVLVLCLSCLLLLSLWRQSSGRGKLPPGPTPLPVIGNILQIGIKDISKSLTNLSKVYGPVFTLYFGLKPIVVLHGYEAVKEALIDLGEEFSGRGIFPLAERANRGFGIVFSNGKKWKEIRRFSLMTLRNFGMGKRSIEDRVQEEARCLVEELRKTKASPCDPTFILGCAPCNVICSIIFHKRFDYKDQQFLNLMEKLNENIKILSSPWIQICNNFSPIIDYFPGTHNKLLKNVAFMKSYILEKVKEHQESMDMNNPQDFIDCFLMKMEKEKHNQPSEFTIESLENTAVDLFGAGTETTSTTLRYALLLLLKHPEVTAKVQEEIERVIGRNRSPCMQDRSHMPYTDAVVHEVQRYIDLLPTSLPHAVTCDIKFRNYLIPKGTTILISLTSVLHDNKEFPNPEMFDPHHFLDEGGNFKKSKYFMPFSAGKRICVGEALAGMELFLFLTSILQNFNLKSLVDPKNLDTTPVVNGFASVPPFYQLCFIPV

inhibition at up to 10 µM (MCL-1 protein; HTRF MCL-1/Bim binding, initial concentration 10 μM, read-out: Maximum inhibition rate (%)): 100%
Ki (MCL-1 protein; HTRF, 0.1 nM His-MCL-1, 2.5 nM bio-Bim, room temperature): 0.16 nM
IC50 (CYP2C9): 16600 nM
IC50 (MV-4-11 cells): 26 nM
IC50 (2C19): > 30000 nM
Compound: Cc1c(C(=O)O)n2c3ccc(Cl)c(c13)-c1c(nn(C)c1C)CSCc1cc(n(C)n1)CSc1cc3c(c(c1)OCCC2)CCC3 (single isomer, unassigned) [Example 13-1, (Ra)-17-Chloro-5,13,14,22-tetramethyl-28-oxa-2,9-dithia-5,6,12,13,24-pentaazaheptacyclo[27.6.1.1^4,7.0^11,15.0^16,21.0^20,24.0^30,34]heptatriaconta-1(36),4(37),6,11,14,16,18,20,22,29,34-undecaene-23-carboxylic acid]
IC50 (AMO-1 cells): 26 nM
